Like-named read-outs stand apart in the source and are kept apart here.
Key:
[1] = molecular target: T1, human ileal/renal bile acid transporter (Homo sapiens, UniProt Q12908, S171A); assay: Anion specificity of taurocholate uptake in HIBAT-transfected COS cells; details: for taurocholate uptake on replacing chloride (in words): anion in place of chloride; for Taurocholate Uptake, percentage of control: control = uptake in the presence of NaCl, 15 min, 137000 µM
T1 sequence (Q12908 1-348 S171A): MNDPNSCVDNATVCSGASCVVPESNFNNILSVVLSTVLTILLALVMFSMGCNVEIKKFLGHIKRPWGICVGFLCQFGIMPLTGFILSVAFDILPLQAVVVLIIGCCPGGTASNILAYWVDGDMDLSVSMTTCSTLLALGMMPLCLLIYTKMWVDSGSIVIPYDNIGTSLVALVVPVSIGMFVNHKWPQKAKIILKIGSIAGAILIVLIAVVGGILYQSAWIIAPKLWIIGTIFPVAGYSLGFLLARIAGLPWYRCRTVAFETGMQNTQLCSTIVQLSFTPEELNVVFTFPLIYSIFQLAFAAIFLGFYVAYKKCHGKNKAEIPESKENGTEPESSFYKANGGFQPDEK
Method: COS cells were seeded (1.5×10^6 cells/100 mm dish) in DMEM and transfected the following day with pCMV5-HIBAT or pCMV2-βgalactosidase (5 μg) by the DEAE-dextran method. On day 2, each group of transfected cells was treated with trypsin, pooled, and replated in 24-well culture plates at 7×10^4 cells/well. […] The cells were then lysed in 0.1N NaOH and aliquots were taken to determine protein and cell-associated radioactivity. […] Data are also given as percentage of control (uptake in the presence of NaCl).

[2] = molecular target: T2, ileal Na^+ /bile acid cotransporter (IBAT) (Cricetulus griseus, UniProt Q60414); assay: Inhibition of [^3 H]taurocholate uptake by organic anions in pIBAT-transfected COS cells (FIG. 6B); type: cell-based, hamster; details: 100 μM unlabeled inhibitor, 5 μM [^3 H]taurocholate
T2 construct: The hamster IBAT cDNA encodes a protein of 348 amino acids; expressed in transfected cells; host or cells: COS-1 cells, transient DEAE-dextran transfection with pIBAT (cDNA in pCMX)
T2 sequence (Q60414 1-348): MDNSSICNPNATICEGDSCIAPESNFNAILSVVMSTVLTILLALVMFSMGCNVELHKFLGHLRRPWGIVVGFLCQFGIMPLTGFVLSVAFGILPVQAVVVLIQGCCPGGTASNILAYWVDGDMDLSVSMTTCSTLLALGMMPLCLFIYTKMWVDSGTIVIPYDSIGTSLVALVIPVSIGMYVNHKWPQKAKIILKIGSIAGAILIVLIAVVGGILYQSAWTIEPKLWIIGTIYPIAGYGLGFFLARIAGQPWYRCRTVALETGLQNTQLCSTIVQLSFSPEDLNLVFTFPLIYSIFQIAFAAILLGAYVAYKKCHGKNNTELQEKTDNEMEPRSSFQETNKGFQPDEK
Method: FIG. 6B. […] COS cells were plated and transfected as described in the description of FIG. 4 (immediately above).
(§1) On day 0, dishes of 1.50×10^6 cells per 100-mm dish were plated in medium A. On day 1, the cells were transfected by the DEAE-dextran method (Esser et al., 1988) with 5 μg plasmid DNA. […] After the indicated amount of time at 37° C., the medium was removed, and each cell monolayer was washed and processed to determine cell-associated protein and radioactivity as described above.

[3] = system: liver membranes; details: cited from earlier work
[4] = molecular target: T3, human ileal/renal bile acid transporter (Homo sapiens, UniProt Q12908); assay: Cation specificity of taurocholate uptake in HIBAT-transfected COS cells; type: cell-based; details: 137 mM cation, 5 μM [^3 H]taurocholate, 15 min, 37° C., mean±SD of triplicate
T3 construct: were fused to make a single clone encoding the entire gene; expressed in transfected cells; host or cells: COS cells, transient DEAE-dextran transfection with pCMV5-HIBAT
T3 sequence (Q12908 1-348 S171A): T1 sequence (Q12908 1-348 S171A)
Method: (§2) COS cells were seeded (1.5×10^6 cells/100 mm dish) in DMEM and transfected the following day with pCMV5-HIBAT or pCMV2-βgalactosidase (5 μg) by the DEAE-dextran method. On day 2, each group of transfected cells was treated with trypsin, pooled, and replated in 24-well culture plates at 7×10^4 cells/well. […] The cells were then lysed in 0.1N NaOH and aliquots were taken to determine protein and cell-associated radioactivity. […] Data are also given as percentage of control (uptake in the presence of sodium).

[5] = system: ileal/renal bile acid transporter; details: cation replacing Na^+; cited from earlier work
[6] = molecular target: T1, human ileal/renal bile acid transporter; assay: Cation specificity of taurocholate uptake in HIBAT-transfected COS cells; type: cell-based; parameters: were fused to make a single clone encoding the entire gene; expressed in transfected cells; host or cells: COS cells, transient DEAE-dextran transfection with pCMV5-HIBAT; details: for Taurocholate Uptake, percentage of control: control = uptake in the presence of sodium, 15 min, 137000 µM
Method: as §2

[7] = molecular target: T1, human ileal/renal bile acid transporter; assay: Substrate specificity: [^3 H]taurocholate competition in HIBAT-transfected COS cells (Dixon plot); type: cell-based; parameters: were fused to make a single clone encoding the entire gene; expressed in transfected cells; host or cells: COS cells, transient DEAE-dextran transfection with pCMV5-HIBAT
Source text: It is the ileal/renal bile acid transporter system's remarkable substrate specificity that makes it an appealing pharmacological target for the treatment of hypercholesterolemia by interrupting the enterohepatic circulation of bile acids. […] These studies of the major bile acid species were later extended in animal model systems to include various chemical derivatives of bile acids. However, the affinity of the human ileal/renal bile acid transporter for these natural bile acids has never been studied systematically. In addition to bile acids, the transport of other organic anions has been studied. […] The Km, Vmax, and Ki values were determined using Eadie-Hofstee and Dixon plot analysis.

[8] = molecular target: T2, ileal Na^+ /bile acid cotransporter (IBAT); assay: Competition for [^3 H]taurocholate uptake in pIBAT-transfected COS cells (transport specificity, FIG. 6A); type: cell-based, hamster; details: for inhibition of [^3 H]taurocholate uptake: 50 μM unlabeled competitor, 5 μM [^3 H]taurocholate (10-fold molar excess); for effect on [^3 H]taurocholate uptake (in words): 50 μM competitor, compared with taurocholate
Method: FIG. 6A. Transport specificity of pIBAT-transfected COS cells in the presence of competitors. COS cells were plated and transfected as described in the description of FIG. 4 (immediately above).
as §1
To examine the transport specificity of the IBAT protein, COS cells were transfected with the IBAT cDNA and incubated with 50 μM unlabeled bile acid or other competitor.

[9] = system: ileal transporter; details: in vivo; cited from earlier work
[10] = system: liver taurocholate uptake; details: cited from earlier work
[11] = molecular target: T2, ileal Na^+ /bile acid cotransporter (IBAT); assay: Sodium-dependence of taurocholate uptake in IBAT-transfected COS cells; type: cell-based, hamster
Method: as §1

[12] = system: cholestasis; details: patients with cholestasis; cited from earlier work

CC(=O)O [Acetate, sodium acetate]
taurocholate uptake on replacing chloride (in words) [1]: markedly reduced

O=C1OC(c2ccc(O)c(S(=O)(=O)O)c2)(c2ccc(O)c(S(=O)(=O)O)c2)c2c(Br)c(Br)c(Br)c(Br)c21 [BSP, bromosulfophthalein]
inhibition of [^3 H]taurocholate uptake (in words) [2]: not to be significantly inhibited | inhibition of [^3 H]taurocholate uptake (in words) ([2]; listed as bromosulfophthalein (BSP)): not inhibited | inhibition of Na^+ -dependent taurocholate uptake (in words) [3]: shown to inhibit

[Cs+] [Cesium]
Taurocholate Uptake [4]: 0.2 ± 0.01 pmol/min/mg | effect of replacing Na^+ on active taurocholate transport (in words) [5]: significantly inhibited | Taurocholate Uptake, percentage of control [6]: 2%

C[C@H](CCC(=O)O)[C@H]1CC[C@H]2[C@@H]3[C@H](O)C[C@@H]4C[C@H](O)CC[C@]4(C)[C@H]3CC[C@]12C [Chenodeoxycholate]
Ki [7]: 3.3 ± 1.9 µM

Cl [Chloride]
Taurocholate Uptake, percentage of control [1]: 100%

C[C@H](CCC(=O)O)[C@H]1CC[C@H]2[C@@H]3[C@H](O)C[C@@H]4C[C@H](O)CC[C@]4(C)[C@H]3C[C@H](O)[C@]12C [Cholate]
inhibition of [^3 H]taurocholate uptake [8]: 51%

O=C(O)CC(O)(CC(=O)O)C(=O)O [Citrate]
taurocholate uptake on replacing chloride (in words) [1]: markedly reduced

O=S(=O)(O)c1cc(N=C=S)ccc1C=Cc1ccc(N=C=S)cc1S(=O)(=O)O [DIDS, 4,4'-diisothiocyano-2,2'-disulfonic acid stilbene]
inhibition of [^3 H]taurocholate uptake (in words) [2]: not to be significantly inhibited | inhibition of [^3 H]taurocholate uptake (in words) ([2]; listed as 4,4'-diisothiocyano-2,2'-disulfonic acid stilbene (DIDS)): not inhibited | inhibition of Na^+ -dependent taurocholate uptake (in words) [3]: shown to inhibit | effect against the ileal transporter (in words) [9]: ineffective | competition for liver taurocholate uptake (in words) [10]: compete for liver taurocholate uptake

C[C@H](CCC(=O)O)[C@H]1CC[C@H]2[C@@H]3CC[C@@H]4C[C@H](O)CC[C@]4(C)[C@H]3C[C@H](O)[C@]12C [Deoxycholate]
Ki [7]: 6.4 ± 2.5 µM

[Li] [Lithium]
Taurocholate Uptake [4]: 0.3 ± 0.04 pmol/min/mg | effect of replacing Na^+ on active taurocholate transport (in words) [5]: significantly inhibited

[K+] [Potassium]
support of [^3 H]taurocholate uptake (in words) ([11]; in place of 137 mM Na^+, equal concentration): unable to support | Taurocholate Uptake [4]: 0.3 ± 0.17 pmol/min/mg | effect of replacing Na^+ on active taurocholate transport (in words) [5]: significantly inhibited | taurocholate uptake on replacing Na^+ (in words) ([6]; cation replacing Na^+): dramatically reduced | Taurocholate Uptake, percentage of control [6]: 3%

[Rb] [Rubidium]
Taurocholate Uptake [4]: 0.3 ± 0.09 pmol/min/mg | effect of replacing Na^+ on active taurocholate transport (in words) [5]: significantly inhibited | Taurocholate Uptake, percentage of control [6]: 3%

[Na+] [Sodium]
taurocholate uptake (100% of control value) ([11]; 137 mM sodium, 5 μM [^3 H]taurocholate, 15 minutes): 134±26 pmoles min^-1 mg^-1 protein | Taurocholate Uptake [4]: 9.2 ± 0.41 pmol/min/mg | Taurocholate Uptake, percentage of control [6]: 100%

O=S(=O)(O)O [Sulfate]
Taurocholate Uptake, percentage of control [1]: 69%

C[C@H](CCC(=O)NCCS(=O)(=O)O)[C@H]1CC[C@H]2[C@@H]3[C@H](O)C[C@@H]4C[C@H](O)CC[C@]4(C)[C@H]3CC[C@]12C [Taurochenodeoxycholate, taurochenodeoxycholate]
effect on [^3 H]taurocholate uptake (in words) [8]: competed more effectively | effect on [^3 H]taurocholate uptake (in words) ([8]; listed as taurochenodeoxycholic acid): more effective competitors | inhibition of [^3 H]taurocholate uptake [8]: 87% | Ki ([7]; read-out: Apparent Ki): 3.2 ± 0.5 µM

C[C@H](CCC(=O)NCCS(=O)(=O)O)[C@H]1CC[C@H]2[C@@H]3CC[C@@H]4C[C@H](O)CC[C@]4(C)[C@H]3C[C@H](O)[C@]12C [Taurodeoxycholate, taurodeoxycholate]
effect on [^3 H]taurocholate uptake (in words) [8]: competed more effectively | effect on [^3 H]taurocholate uptake (in words) ([8]; listed as taurodeoxycholic acid): more effective competitors | inhibition of [^3 H]taurocholate uptake [8]: 80% | Ki [7]: 17.3 ± 3.9 µM

C[C@H](CCC(=O)NCCS(=O)(=O)O)[C@H]1CC[C@H]2[C@@H]3[C@@H](O)C[C@@H]4C[C@H](O)CC[C@]4(C)[C@H]3CC[C@]12C [Tauroursodeoxycholate]
Ki ([7]; read-out: Apparent Ki): 28.4 ± 7.4 µM

C[C@H](CCC(=O)O)[C@H]1CC[C@H]2[C@@H]3[C@@H](O)C[C@@H]4C[C@H](O)CC[C@]4(C)[C@H]3CC[C@]12C [Ursodeoxycholate, Ursodeoxycholic acid]
treatment outcome (in words) [12]: improves liver function, but does not stop the progression of the disease | Ki [7]: 77.1 ± 17.2 µM

C=CC1=C(C)/C(=C/c2[nH]c(Cc3[nH]c(/C=C4\NC(=O)C(C)=C4C=C)c(C)c3CCC(=O)O)c(CCC(=O)O)c2C)NC1=O [bilirubin]
effect against the ileal transporter (in words) [9]: ineffective | competition for liver taurocholate uptake (in words) [10]: compete for liver taurocholate uptake

CC1(C)C(/C=C/C=C/C=C/C=C2\N(CCCCS(=O)(=O)O)c3ccc4ccccc4c3C2(C)C)=[N+](CCCCS(=O)(=O)[O-])c2ccc3ccccc3c21 [indocyanine green]
effect against the ileal transporter (in words) [9]: ineffective | competition for liver taurocholate uptake (in words) [10]: compete for liver taurocholate uptake

NCCS(=O)(=O)O [taurine]
effect on [^3 H]taurocholate uptake (in words) [8]: limited effect

Phosphate
taurocholate uptake on replacing chloride (in words) [1]: markedly reduced | Taurocholate Uptake, percentage of control [1]: 31%

phalloidin
effect against the ileal transporter (in words) [9]: ineffective | competition for liver taurocholate uptake (in words) [10]: compete for liver taurocholate uptake
